Source: patent USRE39264E1, “Pharmaceutical combination” (Medivir AB, priority 1996, dated 2006)

Assays:
[1] = tested on: Human HSV-1 (strain C42 or SC16); assay: Experiment 3: combination creams of an antiviral and an anti-inflammatory substance in the animal model for recurrent herpes infection; assay type: in vivo, Balb/C mice; settings: for ear thickness (% of placebo) / Lesion score (% of placebo): placebo set to 100%
Protocol: Human HSV-1 (2×10^5 plaque forming units, pfu, strain C42 or SC16) is inoculated into the neck of groups of 10-18 female in-bred Balb/C mice (16-18 g) as described by Kristofferson et al. (“Limited efficacy of inhibitors of herpes simplex virus DNA synthesis in murine models of recrudescent disease”, J. Gen. Virol. 1988; 69:1157-66). The development of zosteriform spread infection is then recorded by daily inspection of the occurrence of lesions on the pinna and swelling of the ear.
The same animal model with ten animals in each group was used.

[2] = tested on: recurrent HSV infections; settings: oral formulation, used after the appearance of symptoms; cited from earlier work
[3] = tested on: Human HSV-1 (strain C42 or SC16); assay: Experiment 1: combination creams of foscarnet and an antiinflammatory substance in the animal model for recurrent herpes infection; assay type: in vivo, Balb/C mice; settings: for Compounded value ± s.d., Ear thickness / Compounded value ± s.d., Lesion score: cream day 4-7 after infection three times daily, mean cumulative over days 4-12, 15 and 21, ATI day 2; for Compounded value ± s.d., Lesion score: score scale 0-4; for Ear thickness (% of placebo): cumulative ear thickness; for Ear thickness (% of placebo) / Lesion score (% of placebo): placebo set to 100%; for Lesion score (% of placebo): cumulative lesion score
Protocol: This transport will take approximately 3-4 days. […] Budesonide and lidocaine were selected for testing as examples of antiinflammatory compounds. The foscarnet cream Foscarnet Cream was prepared as described in Example 1. The cream base without drug was used as placebo. The cream base described above was also mixed with budesonide cream (0.025%, […]-Brocades, The Netherlands) to obtain suitable concentrations for treatment. […] Foscarnet, the two antiinflammatory substances, as well as the two combination creams were tested in the animal model described, with ten animals in each group. The respective cream was applied day 4-7 after infection three times daily.

[4] = tested on: Human HSV-1 (strain C42 or SC16); assay: Experiment 2: sequential test of foscarnet cream and an antiinflammatory cream in the animal model for recurrent herpes infection
Text: In the novel animal model, virus is inoculated in the neck of a mouse. The virus will then be transported through the nerves to the skin of the corresponding ear. This transport will take approximately 3-4 days. On day 2 the animals are given immune cells with reactivity against the infecting virus. Subsequently, when the virus arrives at the ear, the animal instantly mobilises an effective immune response against the virus, thus mimicking the clinical situation of a recurrent herpes infection.
The development of zosteriform spread infection is then recorded by daily inspection of the occurrence of lesions on the pinna and swelling of the ear.
The lesions are scored on a scale from 0 to 4 as follows: • 0: no lesions on the ear • 1: isolated zosteriform lesions on the ear • 2: mild ulceration of zosteriform lesions on the ear • 3: moderate ulceration of zosteriform lesions on the ear • 4: severe ulceration of zosteriform lesions on the ear
Swelling of the ear was assessed by measuring the thickness of the ears using an engineers micrometer, as described by Kristofferson et al. The titre of infectious virus in the ear was measured as described by Kristofferson et al, except that BHK (baby hamster kidney) cells were used in addition.
On day 2 after infection the animals are given adoptive transfer of immunity, ATI, against HSV-1 by intravenous injection of 2×10^7 lymph node cells into the tail. Said lymph node cells had been prepared by injecting HSV-1 (10^5 pfu, strain C42 or strain SC16) into the pinna of both ears of anaesthetisized female Balb/C mice (16-18 g). Seven days post infection the animals are sacrificed by cervical dislocation, the draining lymph nodes are removed, and a suspension of lymph node cells in phosphate buffered saline is prepared by means of a micro mesh.
On day 4 after the infection and for 4 days, a composition to be tested as to activity against recurrent herpes is distributed equally in an amount of approximately 25 mg of cream on each side of the ear, every 8 h.
In this experiment the animals were treated with two different formulations 2 hours apart. First the foscarnet cream was applied and 2 hours later the antiinflammatory formulation. This was repeated three times daily during the treatment period (day 4-7 after infection).
The following substances were tested: foscarnet (3%, Foscarnet Cream), budesonide (0.025%, Preferid®, Gist-Brocades, The Netherlands), hydrocortisone (1%, Hydrokortison kräm 1% ACO, Kabi Pharmacia AB, Sweden), lidocaine (5%, Xylocaine®, Astra AB) and ketoprofen (2.5%, Oruvail®, Rhone-Poulenc Rorer NS, Denmark)

[5] = systemic treatment, 50 mg/kg injected intra-peritoneally three times daily
[6] = topical cream three times daily days 4-7 after infection, ATI day 2

| Structure (SMILES) | Mean cumulative value ± s.d., ear thickness [1, 6] | Mean cumulative value ± s.d., lesion score [1, 6] | Lesion score (% of placebo) ([1]; topical cream) | ear thickness (% of placebo) ([1]; topical cream) | Compounded value ± s.d., Ear thickness [3] | Compounded value ± s.d., Lesion score [3] | Ear thickness (% of placebo) [3] | Lesion score (% of placebo) [3] | other results |
| --- | --- | --- | --- | --- | --- | --- | --- | --- | --- |
| Nc1nc2c(ncn2COCCO)c(=O)[nH]1 [Acyclovir] | 3.3 ± 0.3 mm | 8.0 ± 1.3 | 118 % of placebo | 100 % of placebo | – | – | – | – | ear thickness (% of placebo) ([1]; systemic treatment, 50 mg/kg i.p. three times daily): 88 % of placebo; Mean cumulative value ± s.d., ear thickness [1, 5]: 3.0 ± 0.4 mm; Mean cumulative value ± s.d., lesion score [1, 5]: 7.0 ± 1.6; Shortening of healing time [2]: no more than approximately one day |
| CCCC1O[C@@H]2C[C@H]3[C@@H]4CCC5=CC(=O)C=C[C@]5(C)[C@H]4[C@@H](O)C[C@]3(C)[C@]2(C(=O)CO)O1 (stereo partly drawn) [Budesonide] | – | – | – | – | 2.1 ± 0.4 mm | 8.8 ± 1.8 | 58 % of placebo | 96 % of placebo | – |
| O=C(O)P(=O)(O)O [Foscarnet, Trisodium phosphonoformate hexahydrate] | 3.3 ± 0.2 mm | 7.3 ± 1.2 | 107 % of placebo | 98 % of placebo | 3.0 ± 0.4 mm | 7.5 ± 2.5 | 82 % of placebo | 82 % of placebo | Virus titre in the ear ± s.d. on d 7 ([4]; ATI +, day 7 after infection): 3.25 ± 0.49 log10pfu/ml; Ear thickness (% of placebo) ([4]; cumulative ear thickness, placebo set to 100%): 88 % of placebo; Lesion score (% of placebo) ([4]; cumulative lesion score, placebo set to 100%): 84 % of placebo; Reduction of virus titre compared to placebo-treated animals ([4]; day 7 after infection): about tenfold; Mean cumulative value ± s.d., lesion score ([4]; foscarnet cream, 2 hours later antiinflammatory cream, three times daily day 4-7 after infection, ATI day 2): 4.8 ± 2.0; Mean cumulative value ± s.d., Ear thickness ([4]; foscarnet cream, 2 hours later antiinflammatory cream, three times daily day 4-7 after infection, measured as in Experiment 1): 2.8 ± 0.3; Effect on ear thickness ([4]; in comparison to placebo): small reduction; Effect on lesion score ([4]; in comparison to placebo): small reduction |
| C[C@]12CCC(=O)C=C1CC[C@@H]1[C@@H]2[C@@H](O)C[C@@]2(C)[C@H]1CC[C@]2(O)C(=O)CO [Hydrocortisone] | 2.0 ± 0.2 mm | 6.0 ± 1.3 | 88 % of placebo | 61 % of placebo | – | – | – | – | – |
| CCN(CC)CC(=O)Nc1c(C)cccc1C [Lidocaine] | – | – | – | – | 3.6 ± 0.3 mm | 9 ± 2 | 100 % of placebo | 98 % of placebo | Effect on ear thickness / inflammation ([3]; compared to placebo or single creams): no effect |
| O=C(O)Cc1ccccc1Nc1c(Cl)cccc1Cl [diclofenac] | – | – | – | – | – | – | – | – | Side-effects of topical NSAID ([4]; topical gel, probably systemic absorption in too high amounts): toxic side-effects |
| COc1ccc2c(c1)c(CC(=O)O)c(C)n2C(=O)c1ccc(Cl)cc1 [indomethacin] | – | – | – | – | – | – | – | – | Side-effects of topical NSAID ([4]; mouse, in vivo): toxic side-effects |
